{"source": "patent US20040197346A1", "about": "“Materials and methods for intracellular transport and their uses” (Marie Curie Cancer Care, priority 1997, published 2004)", "key": {"[1]": {"test": "Transport activity of VP22 sub-sequences", "format": "cell-based", "conditions": "sub-sequences of full HSV1 VP22 sequence (1-301)"}, "Cos-1 cells": {"test_system": "Cos-1 cells", "test": "Delivery by intercellular trafficking, immunofluorescence of transfected Cos-1 cell monolayers", "format": "cell-based", "conditions": "transfected Cos-1 cells, 48 h, methanol-fixed, anti-VP22/-p53/-epitope immunofluorescence", "description": "Cos-1 cells were grown in Dulbecco's modified MEM supplemented with 10% new born calf serum at 37° C. with 5% CO2.\nTransfections were performed using the BES/CaCl2 method (Elliott and O'Hare, 1997) with 200 ng test plasmid with 1800 ng pUB19. Transfections were allowed to proceed for 48 h at which point the monolayers were harvested for immunofluorescence or western blot analysis.\nCell monolayers on coverslips were fixed with 100% methanol for 15 mins at room temperature and labelled as described in Elliott and O'Hare (1997). All antibodies were diluted in PBS+10% serum. VP22 was detected using a rabbit polyclonal antibody AGV30 (1:500), p53 was detected using a mouse monoclonal antibody DO-1 (Santa-Cruz Ltd), the CMV epitope was detected using a mouse monoclonal antibody CMV. LNA (Capricorn Ltd). Images were obtained using a Bio-Rad MRC600 confocal microscope.\nThe VP22-p53 fusion protein construct was generated by cloning a full length p53 PCR fragment C-terminal to VP22 into a unique Bam site, keeping both VP22 and the CMV epitope in frame.\nWe constructed an epitope-tagged full length in-frame VP22-p53 fusion protein construct (FIG. 2). This vector generates a fusion protein of approx 90 kDa when expressed in Cos-1 cells, with very little protein degradation as judged by western blot analysis (FIG. 3). […]"}}}
{"substance": "aa 159-301: polypeptide corresponding to aminoacids 159-301 of the full HSV1 VP22 sequence (1-301)", "values": [{"measurement": "transport activity", "setting": "[1]", "value": "transport activity is present"}]}
{"substance": "aa 175-301: polypeptide consisting of aa 175-301 of the VP22 sequence", "values": [{"measurement": "transport activity", "setting": "[1]", "value": "markedly less transport activity"}]}
{"substance": "aa 60-301: polypeptide corresponding to aminoacids 60-301 of the full HSV1 VP22 sequence (1-301)", "values": [{"measurement": "transport activity", "setting": "[1]", "value": "transport activity is present"}]}
{"substance": "VP22: HSV-1 virion protein VP22, 38 kDa, with intercellular trafficking mechanism", "values": [{"measurement": "delivery by intercellular trafficking (spread into nuclei of neighbouring non-expressing cells)", "setting": "Cos-1 cells", "value": "clear spread to the nuclei of adjacent cells"}]}
{"substance": "deletion of the 34-aminoacid C-terminal sequence from VP22 of HSV1: VP22 of HSV1 lacking its 34-aminoacid C-terminal sequence", "values": [{"measurement": "transport activity", "setting": "[1]", "value": "abolishes transport-activity"}]}
